Data reported in PubChem BioAssay AID330 (DTP/NCI, 2004).
Several values for one entry are separate records, joined by “and”; a condition that tells them apart may be missing. Identical values can stand only once. Toxic doses and inconclusive results are not listed. Bridge positions count the residues as written; N and C are the ends. Square brackets hold non-standard residues; d marks the D form. Peptide text beside a SMILES is read from it. I, II: the chains in the order shown. * marks the point of attachment. Quinoxaline2carbonyl = O=C(c1cnc2ccccc2n1)*; NMeV = CN[CH](C(=O)O)C(C)C; NMeC = CN[CH](CS)C(=O)O

Test system: P388 leukemia ip, CD2F1 mice, survival T/C
Assay: NCI In Vivo Anticancer Drug Screen. Data for tumor model P388 Leukemia (intraperitoneal) in CD2F1 (CDF1) mice
Conditions: endpoint: median survival time, higher = longer survival
Method in brief: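 Mice carrying the transplanted tumor received test compound or vehicle. Survival was recorded in each group, and the value is the treated-group measurement divided by that of the vehicle-treated control group.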

[1] = dose: 100.0 mg/kg/injection, schedule: Q04DX003 (ip), vehicle: saline with Tween-80
[2] = dose: 200.0 mg/kg/injection, schedule: Q04DX003 (ip), vehicle: saline with Tween-80
[3] = dose: 50.0 mg/kg/injection, schedule: Q01DX009 (ip), vehicle: saline with Tween-80
[4] = dose: 100.0 mg/kg/injection, schedule: Q01DX009 (ip), vehicle: saline with Tween-80
[5] = dose: 50.0 mg/kg/injection, schedule: Q01DX005 (ip), vehicle: saline
[6] = dose: 100.0 mg/kg/injection, schedule: Q01DX005 (ip), vehicle: saline
[7] = dose: 200.0 mg/kg/injection, schedule: Q01DX005 (ip), vehicle: saline
[8] = dose: 200.0 mg/kg/injection, schedule: Q01DX009 (ip), vehicle: saline with Tween-80
[9] = dose: 50.0 mg/kg/injection, schedule: Q01DX005 (ip), vehicle: saline with Tween-80
[10] = dose: 100.0 mg/kg/injection, schedule: Q01DX005 (ip), vehicle: saline with Tween-80
[11] = dose: 200.0 mg/kg/injection, schedule: Q01DX005 (ip), vehicle: saline with Tween-80

CN(Cc1cnc2nc(N)nc(N)c2n1)c1c(Cl)cc(C(=O)NC(CCC(=O)O)C(=O)O)cc1Cl (stereo not drawn)
T/C (dose: 25.0 mg/kg/injection, schedule: Q01DX005 (ip), vehicle: suspension in saline): 158 % of control
T/C (dose: 25.0 mg/kg/injection, schedule: Q01DX005 (iv), vehicle: suspension in saline): 119 % of control
T/C (dose: 50.0 mg/kg/injection, schedule: Q01DX005 (ip), vehicle: suspension in saline): 169 % of control
T/C (dose: 100.0 mg/kg/injection, schedule: Q01DX005 (ip), vehicle: suspension in saline): 178 % of control
T/C (dose: 100.0 mg/kg/injection, schedule: Q01DX005 (iv), vehicle: suspension in saline): 165 % of control
T/C [1]: 195 % of control
T/C (dose: 200.0 mg/kg/injection, schedule: Q01DX005 (ip), vehicle: suspension in saline): 190 % of control
T/C [2]: 222 % of control
T/C (dose: 264.0 mg/kg/injection, schedule: Q04DX003 (ip), vehicle: saline with Tween-80): 245 % of control
T/C (dose: 400.0 mg/kg/injection, schedule: Q04DX003 (ip), vehicle: saline with Tween-80): 109 % of control and 240 % of control
T/C (dose: 600.0 mg/kg/injection, schedule: Q04DX003 (ip), vehicle: saline with Tween-80): 259 % of control

Nc1ncnc2c1ccn2Cc1c(F)cccc1Cl
T/C (dose: 50.0 mg/kg/injection, schedule: Q01DX005 (ip), vehicle: distilled water + alcohol): 100 % of control
T/C (dose: 100.0 mg/kg/injection, schedule: Q01DX005 (ip), vehicle: distilled water + alcohol): 101 % of control
T/C (dose: 200.0 mg/kg/injection, schedule: Q01DX005 (ip), vehicle: distilled water + alcohol): 105 % of control

COC1/C=C/OC2(C)Oc3c(C)c(O)c4c(O)c(c(/C=N/N5CC(C)(C)N(Cc6ccccc6)CC5(C)C)c(O)c4c3C2=O)NC(=O)C(C)=C/C=C/C(C)C(O)C(C)C(O)C(C)C(OC(C)=O)C1C (stereo not drawn)
T/C [3]: 107 % of control
T/C [4]: 118 % of control

O=C1C=C(NCCC2CCCN3CCCCC23)C(=O)c2ccccc21 (stereo not drawn)
T/C (dose: 12.5 mg/kg/injection, schedule: Q01DX001 (ip), vehicle: Klucel (hydroxypropylcellulose) (HPC)): 98 % of control
T/C (dose: 25.0 mg/kg/injection, schedule: Q01DX001 (ip), vehicle: Klucel (hydroxypropylcellulose) (HPC)): 95 % of control
T/C (dose: 50.0 mg/kg/injection, schedule: Q01DX001 (ip), vehicle: Klucel (hydroxypropylcellulose) (HPC)): 100 % of control

O=[N+]([O-])c1ccc(S(=O)(=O)Nc2c([N+](=O)[O-])cc([N+](=O)[O-])c3ccccc23)cc1
T/C (dose: 50.0 mg/kg/injection, schedule: Q04DX003 (ip), vehicle: saline with Tween-80): 92 % of control
T/C [1]: 95 % of control
T/C [2]: 105 % of control

CC(=O)OCC(COC(C)=O)(CN1C(=O)c2ccccc2C1=O)CN1C(=O)c2ccccc2C1=O
T/C (dose: 60.0 mg/kg/injection, schedule: Q01DX005 (ip), vehicle: saline with Tween-80): 100 % of control
T/C (dose: 120.0 mg/kg/injection, schedule: Q01DX005 (ip), vehicle: saline with Tween-80): 102 % of control
T/C (dose: 240.0 mg/kg/injection, schedule: Q01DX005 (ip), vehicle: saline with Tween-80): 102 % of control

CC(=O)Nc1ccc(C(/C=N\NC(N)=S)=N/NC(N)=S)cc1
T/C (dose: 25.0 mg/kg/injection, schedule: Q01DX009 (ip), vehicle: saline with Tween-80): 99 % of control
T/C [3]: 97 % of control
T/C [4]: 105 % of control

CC(=O)Nc1ccc(N=Nc2c(S(=O)(=O)O)cc3cc(NC(C)=O)ccc3c2O)cc1
T/C [5]: 98 % of control and 100 % of control
T/C [6]: 100 % of control and 103 % of control
T/C [7]: 99 % of control

CC(C)N=C1CCCC1C(=S)SSC(=S)C1CCCC1=NC(C)C (stereo not drawn)
T/C (dose: 50.0 mg/kg/injection, schedule: Q01DX009 (ip), vehicle: Klucel (hydroxypropylcellulose) (HPC)): 99 % of control
T/C (dose: 100.0 mg/kg/injection, schedule: Q01DX009 (ip), vehicle: Klucel (hydroxypropylcellulose) (HPC)): 99 % of control
T/C (dose: 200.0 mg/kg/injection, schedule: Q01DX009 (ip), vehicle: Klucel (hydroxypropylcellulose) (HPC)): 100 % of control

CCCC(O)C(NC(=O)c1ccccc1)C(=O)O (stereo not drawn)
T/C [3]: 92 % of control
T/C [4]: 98 % of control and 95 % of control
T/C [8]: 95 % of control and 98 % of control

CCCNC(=S)NN1C2CSC1CS2
T/C (dose: 50.0 mg/kg/injection, schedule: Q01DX009 (ip), vehicle: saline): 89 % of control
T/C (dose: 100.0 mg/kg/injection, schedule: Q01DX009 (ip), vehicle: saline): 99 % of control

NC(=O)Nc1nc(C(F)(F)F)cc(=O)[nH]1
T/C [3]: 103 % of control
T/C [4]: 106 % of control
T/C [8]: 99 % of control

CCCCCCC1(/C=C/c2ccc(Cl)c(Cl)c2)OCC(C)(C)CO1
T/C [3]: 100 % of control
T/C [4]: 89 % of control
T/C [8]: 90 % of control

CC(=O)OCC1OC(CC(=O)c2ccccc2)C=CC1OC(C)=O (stereo not drawn)
T/C (dose: 25.0 mg/kg/injection, schedule: Q01DX005 (ip), vehicle: saline with Tween-80): 99 % of control
T/C [9]: 102 % of control and 101 % of control
T/C [10]: 100 % of control and 106 % of control
T/C [11]: 97 % of control and 106 % of control

O=C(O)C(=Cc1c2ccccc2cc2ccccc12)C(=O)O
T/C [9]: 95 % of control
T/C [10]: 99 % of control
T/C [11]: 114 % of control

CC1NC(=O)C(NC(=O)c2cnc3ccccc3n2)COC(=O)C(C(C)C)N(C)C(=O)C2CSSCC(C(=O)N(C)C(C(C)C)C(=O)OCC(NC(=O)c3cnc4ccccc4n3)C(=O)NC(C)C(=O)N2C)N(C)C1=O (stereo not drawn) (I: Quinoxaline2carbonyl-SA[NMeC][NMeV] / II: Quinoxaline2carbonyl-SA[NMeC][NMeV]; ester I:1-II:C, I:C-II:1; disulfide I:3-II:3; configuration not given here)
T/C (dose: 25.0 micrograms/kg/injection, schedule: Q01DX009 (ip), vehicle: water): 150 % of control
T/C (dose: 50.0 micrograms/kg/injection, schedule: Q01DX009 (ip), vehicle: water): 153 % of control
T/C (dose: 100.0 micrograms/kg/injection, schedule: Q01DX009 (ip), vehicle: water): 185 % of control

COc1ccc2c(c1OC)CC(=O)N1CCc3cc4c(cc3C(=O)C21)OCO4 (stereo not drawn)
T/C (dose: 2.5 mg/kg/injection, schedule: Q01DX005 (ip), vehicle: saline + Tween-80 + alcohol): 104 % of control
T/C (dose: 5.0 mg/kg/injection, schedule: Q01DX005 (ip), vehicle: saline + Tween-80 + alcohol): 101 % of control
T/C (dose: 10.0 mg/kg/injection, schedule: Q01DX005 (ip), vehicle: saline + Tween-80 + alcohol): 100 % of control
T/C (dose: 20.0 mg/kg/injection, schedule: Q01DX005 (ip), vehicle: saline + Tween-80 + alcohol): 107 % of control

CN1CC2(C)OC3(CC2(C)N1C)N(C)N(C)CC3(C)O (stereo not drawn)
T/C [5]: 101 % of control
T/C [6]: 101 % of control
T/C [7]: 101 % of control

CCOC(=O)C(CCC(C)(C)SCc1ccccc1)(NC(C)=O)C(=O)OCC
T/C [3]: 91 % of control
T/C [4]: 91 % of control
T/C [8]: 86 % of control

CCOC(=O)/C=C1/Nc2ccc(Cl)cc2NC1=O (tested in a mixture with another compound)
T/C (dose: 50.0 mg/kg/injection, schedule: Q01DX009 (ip), vehicle: distilled water + Tween-80 + alcohol): 96 % of control
T/C (dose: 100.0 mg/kg/injection, schedule: Q01DX009 (ip), vehicle: distilled water + Tween-80 + alcohol): 88 % of control
T/C (dose: 200.0 mg/kg/injection, schedule: Q01DX009 (ip), vehicle: distilled water + Tween-80 + alcohol): 88 % of control

Cc1cccc(/C=N\N=C\c2cccc(C)n2)n1
T/C [4]: 100 % of control
T/C [8]: 100 % of control

O=C1CC2(CCc3ccccc32)C(=O)N1CN1CCN(c2ccccn2)CC1 (stereo not drawn)
T/C [9]: 106 % of control
T/C [10]: 109 % of control
T/C [11]: 92 % of control

CN(C)CCSc1cccc2c1C(=O)c1cccc(SCCN(C)C)c1C2=O
T/C (dose: 0.78 mg/kg/injection, schedule: Q01DX009 (ip), vehicle: saline): 89 % of control
T/C (dose: 1.56 mg/kg/injection, schedule: Q01DX009 (ip), vehicle: saline): 90 % of control
T/C (dose: 3.13 mg/kg/injection, schedule: Q01DX009 (ip), vehicle: saline): 98 % of control
T/C (dose: 3.13 mg/kg/injection, schedule: Q01DX009 (ip), vehicle: water): 105 % of control and 98 % of control
T/C (dose: 6.25 mg/kg/injection, schedule: Q01DX009 (ip), vehicle: saline): 86 % of control
T/C (dose: 6.25 mg/kg/injection, schedule: Q01DX009 (ip), vehicle: water): 99 % of control and 100 % of control
T/C (dose: 12.5 mg/kg/injection, schedule: Q01DX009 (ip), vehicle: saline): 121 % of control
T/C (dose: 12.5 mg/kg/injection, schedule: Q01DX009 (ip), vehicle: water): 101 % of control and 90 % of control
T/C (dose: 25.0 mg/kg/injection, schedule: Q01DX009 (ip), vehicle: water): 100 % of control and 92 % of control
T/C (dose: 50.0 mg/kg/injection, schedule: Q01DX009 (ip), vehicle: water): 90 % of control
